What was measured:
Format in all cases: in vivo
barnyard grass (Eo) [1] = experiment: Test Example 1: herbicidal effects by flooded paddy field treatment; set-up: herbicidal effects, Eo (barnyard grass):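 0-5 growth inhibition grade; 5 = over 90%; 4 = 70-90%; 3 = 50-70%; 2 = 30-50%; 1 = 10-30%; 0 = under 10%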; conditions: dose 100 g active ingredient per 10 ares, examined on the 21st day after treatment, standards of Table 44
Procedure, shortened: (§1)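 Flooded paddy pre-emergence test: sowing into puddled soil under 3 cm water, then dropwise water-surface treatment the following day with diluted wettable powder at 100 g active ingredient per 10 ares. Greenhouse cultivation followed, and weeds were rated against a standard scale at 21 days.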

monochoria (Mo) [2] = experiment: as above; set-up: herbicidal effects, Mo (monochoria):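 0-5 growth inhibition grade; 5 = over 90%; 4 = 70-90%; 3 = 50-70%; 2 = 30-50%; 1 = 10-30%; 0 = under 10%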; conditions: dose 100 g active ingredient per 10 ares, examined on the 21st day after treatment, standards of Table 44
Procedure, shortened: as §1

barnyard grass (Ec) = experiment: Test Example 2: herbicidal effects by upland soil treatment; set-up: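 0-5 growth inhibition grade; 5 = over 90%; 4 = 70-90%; 3 = 50-70%; 2 = 30-50%; 1 = 10-30%; 0 = under 10%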; conditions: dose 100 g active ingredient per 10 ares, examined on the 21st day after treatment
Procedure, shortened: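 Pre-emergence test: barnyard grass and green foxtail sown in upland soil, then soil surface sprayed with wettable-powder formulation at 100 g active ingredient per 10 ares (100 l per 10 ares). Grown in greenhouse; herbicidal effect scored on a rating scale 21 days after treatment.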

monochoria (Mo) [3] = experiment: Test Example 4: selectivity for a crop plant by flooded paddy field treatment; set-up: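 0-5 growth inhibition grade; 5 = over 90%; 4 = 70-90%; 3 = 50-70%; 2 = 30-50%; 1 = 10-30%; 0 = under 10%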; conditions: monochoria, dose 25 gai/10a, 21st day after treatment, index per Table 44
Method: (§2) In a 100 cm^2 plastic pot, a paddy field soil was filled and paddled. Then, seeds of barnyard grass (Eo) and monochoria (Mo) were sown, and rice (Or) of second leaf stage was transplanted, and water was introduced to a depth of 3 cm. Next day, a wettable powder prepared in accordance with Formulation Example 1 was diluted with water and dropwise applied to the water surface. The dose was 25 g of the active ingredient per 10 ares. Thereafter, cultivation was carried out in a green house, and on the 21st day after the treatment, the herbicidal effects were examined in accordance with the standards of Table 44.

rice (Or) = experiment: as above; set-up: scale not given here; conditions: rice transplanted at second leaf stage, dose 25 gai/10a, 21st day after treatment, index per Table 44
Method: as §2

barnyard grass (Eo) [4] = experiment: as above; set-up: scale not given here; conditions: barnyard grass, dose 25 gai/10a, 21st day after treatment, index per Table 44
Method: as §2

Row | Structure (SMILES) | herbicidal effects, Eo (barnyard grass) (barnyard grass (Eo) [1]) | herbicidal effects, Mo (monochoria) (monochoria (Mo) [2]) | Ec (herbicidal effects, index) (barnyard grass (Ec)) | Mo (herbicidal effect index) (monochoria (Mo) [3]) | Or (herbicidal effect index on crop) (rice (Or)) | Eo (herbicidal effect index) (barnyard grass (Eo) [4])
1 | CC(C)C(c1cncnc1C(F)(F)F)N(C)S(=O)(=O)c1ccc(Cl)cc1 (racemic) [4-1] | 5 | 5 | 5 | 5 | 1 | 5
2 | CCc1ncncc1C(N(C)C(=O)Cc1ccc(C)cc1)C(C)(C)C (racemic) [1-567] | 5 | 5 | 5 | 5 | 1 | 5
3 | C#CCN(C(=O)Cc1ccc(C)cc1)C(c1cncnc1C(C)C)C(C)C (racemic) [1-624] | 5 | 5 | 5 | 5 | 1 | 5
4 | C=CCN(C(=O)Cc1ccc(Cl)cc1)C(c1cncnc1C(F)(F)F)C(C)C (racemic) [1-520] | 5 | 5 | 5 | 5 | 1 | 5
5 | CCC(c1cncnc1C(C)C)N(C)C(=O)Cc1ccc(C)cc1 (racemic) [1-439] | 5 | 5 | 5 | 5 | 1 | 5
6 | CN(C(=O)Cc1ccc(Cl)cc1)C(c1ccccc1F)c1cncnc1C(F)(F)F (racemic) [1-548] | 5 | 5 | 5 | 5 | 1 | 5
7 | COC1(C(c2cncnc2C(C)C)N(C)C(=O)Cc2ccc(C)cc2)OCCO1 (racemic) [1-604] | 5 | 5 | 5 | 5 | 1 | 5
8 | Cc1ccc(CC(=O)N(C)C(c2ccccc2F)c2cncnc2C(F)(F)F)cc1 (racemic) [1-549] | 5 | 5 | 5 | 5 | 0 | 5
9 | Cc1ccc(CC(=O)N(C)C(c2ccccc2C)c2cncnc2C(F)(F)F)cc1 (racemic) [1-553] | 5 | 5 | 5 | 5 | 1 | 5
10 | COc1ccc(C(c2cncnc2C(F)(F)F)N(C)C(=O)Cc2ccc(F)cc2)cc1 (racemic) [1-485] | 5 | 5 | 5 | 5 | 1 | 5
11 | CN(C(=O)Cc1ccsc1)C(c1ccccc1)c1cncnc1C(F)(F)F (racemic) [2-20] | 5 | 5 | 5 | 5 | 1 | 5
12 | CN(C(=O)Cc1ccsc1)C(c1cncnc1C(F)(F)F)C1(C)CC1 (racemic) [2-56] | 5 | 5 | 5 | 5 | 1 | 5
13 | CC(C)C(c1cncnc1C(F)(F)F)N(C)C(=O)C(C)(C)c1ccc(Cl)cc1 (racemic) [1-329] | 5 | 5 | 5 | 5 | 1 | 5
14 | CCN(C(=O)Cc1ccsc1)C(c1cncnc1C(F)F)C(C)C (racemic) [2-8] | 5 | 5 | 5 | 5 | 0 | 5

— patent US6806230B1, “Pyrimidine derivatives and herbicides containing them” (Kumiai Chemical Industry Co., Ltd., priority 1999, dated 2004)
